Assay results: patent publication US10682382B2, “Composition for relieving pain, stress and insomnia” (priority 2014, dated 2020)

Experiments:
[1] = test system: REM sleep deprivation induced hyperalgesia; experiment: REM sleep deprivation induced hyperalgesia (modified flowerpot technique, hot plate method); type: in vivo, Male albino Wistar rats
Excerpt: The modified flowerpot technique was used to induce REM sleep deprivation. In this method, rats are placed on elevated platforms in a water tank for 96 hrs. During REM sleep muscle atonia occurs as a result of which when an animal enters REM sleep it falls from the platform into the water. Therefore the animal wakes up and climbs onto platform again. This method prevents REM sleep and permits other sleep stages.
The paws of rats are very sensitive to heat at temperatures which are not damaging to the skin. The responses shown by rats placed on a hot plate are jumping, withdrawal of the paws and licking of the paws. This test is thus used to assess the pain threshold and the animal's response to mild painful stimuli.
To induce sleep deprivation, an acrylic box (24 cm×18 cm×18 cm) with platforms of height 9 cm and 6 cm diameter was used. Water was filled, in the box upto a level of 1 cm below the platform. 6 animals were placed on each platform for 96 hrs. One platform was kept vacant to reduce immobilization stress. […] The responses of the animals to painful stimuli were observed (licking of paws, jumping, paw withdrawal) and the duration of time the animal could remain on the hot plate was recorded. […] One hour after application of the test substances, the animals were again subjected to the hot plate and the response was evaluated. […]

[2] = test system: carrageenan induced paw oedema; experiment: Carrageenan induced paw oedema in rats (topical application, plethysmographic paw volume); settings: mean ± SD, n = 6; for Paw volume, carrageenan induced paw oedema: topical application 7 days + day 8; for Percentage change in carrageenan induced paw oedema (paw volume): ((Vt−Vo)/Vo)×100

`O=C(O)Cc1ccccc1Nc1c(Cl)cccc1Cl` [Diclofenac] was tested, and the “Increase in paw withdrawal time” value ([1]; after minus before formulation, hot plate) was 6.00, the “Paw withdrawal time, before formulation” value ([1]; hot plate 50±2° C. after 96 hrs REM sleep deprivation, before application of test substance, cut-off 60 seconds, mean ± SD, n = 6) was 6.67 ± 3.33 s and the “Paw volume, carrageenan induced paw oedema” value ([2]; 0 hr (immediately before carrageenan)) was 0.23 ± 0.05. For the same compound, the “Paw volume, carrageenan induced paw oedema” value ([2]; 2 hr after carrageenan) was 0.67 ± 0.06, the “Percentage change in carrageenan induced paw oedema (paw volume)” value (shortened to “Percentage change”) ([2]; 2 hr vs 0 hr) was 202.5 ± 79.48% and the “Paw volume, carrageenan induced paw oedema” value ([2]; 5 hr after carrageenan) was 0.38 ± 0.05. The “Percentage change” value ([2]; 5 hr vs 0 hr) was 75 ± 82.15 %, the “Paw volume, carrageenan induced paw oedema” value ([2]; 24 hr after carrageenan) was 0.20 ± 0.05 and the “Percentage change” value ([2]; 24 hr vs 0 hr) was −16.66 ± 25.81 %.
